Counter-ions that a name gives are not always drawn. Blank lines part the entries; values can stand above or below the compound they belong to.
How the values were obtained:
[1] = test system: angiotensin II (AII) vasopressor response; assay: AII challenge: antagonism of the vasopressor response of angiotensin II in conscious Okamoto-Aoki SHR; type: in vivo, rat (Okamoto-Aoki SHR); details: for inhibition in vivo at 1 mg/kg / inhibition in vivo at 2 mg/kg: Rattus norvegicus
From the text: Conscious Male Okamoto-Aoki SHR, 16-20 weeks old, weighing approximately 330 g are purchased from Charles River Labs (Wilmington, Mass.). Conscious rats are restrained in a supine position with elastic tape. The area at the base of the tail is locally anesthetized by subcutaneous infiltration with 2% procaine. The ventral caudal artery and vein are isolated, and a cannula made of polyethylene (PE) 10-20 tubing (fused together by heat) is passed into the lower abdominal aorta and vena cava, respectively. The cannula is secured, heparinized (1,000 I.U./ml), sealed and the wound is closed. The animals are placed in plastic restraining cages in an upright position. The cannula is attached to a Statham P23Db pressure transducer, and pulsatile blood pressure is recorded to 10-15 minutes with a Gould Brush recorder.
Angiotensin II (human sequence, Sigma Chem. Co., St. Louis, Mo.) of 0.05 and 0.1 ug/kg i.v. is injected into all rats (predosing response). Then a test compound, vehicle or a known angiotensin II antagonist is administered i.v., i.p. or orally to each set of rats. […] The vasopressor response of angiotensin II is measured for the increase in systolic blood pressure in mmHg. The percentage of antagonism or blockade of the vasopressor response of angiotensin II by a compound is calculated using the vasopressor response (increase in systolic blood pressure) of angiotensin II of each rat predosing the compound as 100%.

[2] = biological target: angiotensin II receptors; assay: Angiotensin II receptor binding (displacement of 3H-angiotensin II), rat adrenocortical microsomes; details: 2 nM 3H-angiotensin II
Protocol: The source of the angiotensin II receptors utilized in the screen is from rat adrenocortical microsomes. The cortices are placed in ice cold sucrose buffer (0.2 m sucrose, 1 mm EDTA, 10 mm Trizma base, pH 7.4) and homogenized in a chilled ground glass tissue grinder. The homogenate is centrifuged at 3000×g for 10 min. and the resultant supernatant is decanted through cheesecloth and centrifuged at 12,000×g for 3 min. […] Binding assays are performed by incubating aliquots of freshly prepared microsomes in the absence or presence of compound (40 uM final concentration). Ten minutes later, ^3 H-angiotensin II is added to each tube (2 nM final concentration) and incubated for 60 minutes at […]. The reaction is terminated by the addition of 3 ml of cold assay buffer without albumin and the bound and free radioactivity is separated rapidly through glass-fiber filters prewetted with assay buffer. After two additional 3 ml rinses, the filters are placed in scintillation fluid and counted in a scintillation counter to determine trapped radioactivity.

[3] = 1 mg/kg iv, AII .05 ug/kg, 30 min
[4] = 1 mg/kg iv, AII .1 ug/kg, 30 min
[5] = 2 mg/kg iv, AII .025 ug/kg, 90 min
[6] = 2 mg/kg iv, AII .025 ug/kg, 150 min
[7] = 2 mg/kg iv, AII .05 ug/kg, 90 min
[8] = 2 mg/kg iv, AII .05 ug/kg, 120 min
[9] = 2 mg/kg iv, AII .1 ug/kg, 90 min
[10] = 2 mg/kg iv, AII .1 ug/kg, 120 min
[11] = iv, 0.5 h, 1 mg/kg iv, AII .1 ug/kg, 30 min
[12] = iv, 1.5 h, 2 mg/kg iv, AII .025 ug/kg, 90 min
[13] = iv, 1.5 h, 2 mg/kg iv, AII .05 ug/kg, 90 min
[14] = iv, 1.5 h, 2 mg/kg iv, AII .1 ug/kg, 90 min
[15] = iv, 2 h, 2 mg/kg iv, AII .05 ug/kg, 120 min
[16] = iv, 2 h, 2 mg/kg iv, AII .1 ug/kg, 120 min
[17] = iv, 2.5 h, 2 mg/kg iv, AII .025 ug/kg, 150 min
[18] = iv, 2.5 h, 2 mg/kg iv, AII .05 ug/kg, 150 min

IC50 [2]: 8.6 nM
Structure (SMILES): CCCCc1nc2ccc(C(OC)c3ccccc3)cc2c(=O)n1Cc1ccc(-c2ccccc2-c2nnn[nH]2)cc1 (stereo not shown) [Example 56, 2-Butyl-6-(methoxyphenylmethyl)-3-[[2'-(1H-tetrazol-5-yl)[1,1'-biphenyl]-4-yl]methyl]-4(3H)-quinazolinone]
Response change (systolic BP increase to AII) ([1]; 1 mg/kg iv, AII .025 ug/kg, 15 min): 18 mmHg
Response change (systolic BP increase to AII) ([1]; 1 mg/kg iv, AII .025 ug/kg, 30 min): 27 mmHg
Response change (systolic BP increase to AII) ([1]; 1 mg/kg iv, AII .025 ug/kg, 60 min): 20 mmHg
Response change (systolic BP increase to AII) ([1]; 1 mg/kg iv, AII .05 ug/kg, 15 min): 15 mmHg
Response change (systolic BP increase to AII) [1, 3]: 15 mmHg
Response change (systolic BP increase to AII) ([1]; 1 mg/kg iv, AII .05 ug/kg, 60 min): 20 mmHg
Response change (systolic BP increase to AII) ([1]; 1 mg/kg iv, AII .1 ug/kg, 15 min): 15 mmHg
Response change (systolic BP increase to AII) [1, 4]: 20 mmHg
Response change (systolic BP increase to AII) ([1]; 1 mg/kg iv, AII .1 ug/kg, 60 min): 30 mmHg
Response change (systolic BP increase to AII) [1, 5]: 10 mmHg
Response change (systolic BP increase to AII) ([1]; 2 mg/kg iv, AII .025 ug/kg, 120 min): 20 mmHg
Response change (systolic BP increase to AII) [1, 6]: 15 mmHg
Response change (systolic BP increase to AII) [1, 7]: 15 mmHg
Response change (systolic BP increase to AII) [1, 8]: 15 mmHg
Response change (systolic BP increase to AII) ([1]; 2 mg/kg iv, AII .05 ug/kg, 150 min): 10 mmHg
Response change (systolic BP increase to AII) [1, 9]: 5 mmHg
Response change (systolic BP increase to AII) [1, 10]: 15 mmHg
Response change (systolic BP increase to AII) ([1]; 2 mg/kg iv, AII .1 ug/kg, 150 min): 20 mmHg
inhibition in vivo at 1 mg/kg ([1]; iv, 0.25 h, 1 mg/kg iv, AII .025 ug/kg, 15 min): 40%
inhibition in vivo at 1 mg/kg ([1]; iv, 0.25 h, 1 mg/kg iv, AII .05 ug/kg, 15 min): 57%
inhibition in vivo at 1 mg/kg ([1]; iv, 0.25 h, 1 mg/kg iv, AII .1 ug/kg, 15 min): 57%
inhibition in vivo at 1 mg/kg ([1]; iv, 0.5 h, 1 mg/kg iv, AII .025 ug/kg, 30 min): 27%
inhibition in vivo at 1 mg/kg ([1]; iv, 0.5 h, 1 mg/kg iv, AII .05 ug/kg, 30 min): 57%
inhibition in vivo at 1 mg/kg [1, 11]: 43%
inhibition in vivo at 1 mg/kg ([1]; iv, 1 h, 1 mg/kg iv, AII .025 ug/kg, 60 min): 33%
inhibition in vivo at 1 mg/kg ([1]; iv, 1 h, 1 mg/kg iv, AII .05 ug/kg, 60 min): 43%
inhibition in vivo at 1 mg/kg ([1]; iv, 1 h, 1 mg/kg iv, AII .1 ug/kg, 60 min): 14%
inhibition in vivo at 2 mg/kg [1, 12]: 67%
inhibition in vivo at 2 mg/kg [1, 13]: 57%
inhibition in vivo at 2 mg/kg [1, 14]: 86%
inhibition in vivo at 2 mg/kg ([1]; iv, 2 h, 2 mg/kg iv, AII .025 ug/kg, 120 min): 33%
inhibition in vivo at 2 mg/kg [1, 15]: 57%
inhibition in vivo at 2 mg/kg [1, 16]: 57%
inhibition in vivo at 2 mg/kg [1, 17]: 50%
inhibition in vivo at 2 mg/kg [1, 18]: 71%
inhibition in vivo at 2 mg/kg ([1]; iv, 2.5 h, 2 mg/kg iv, AII .1 ug/kg, 150 min): 43%

Structure (SMILES): CCCCc1nc2ccc(C(C)(C)O)cc2c(=O)n1Cc1ccc(-c2ccccc2-c2nnn[nH]2)cc1 [Example 61, 2-Butyl-6-(1-hydroxy-1-methylethyl)-3-[[2'-(1H-(tetrazol-5-yl) [1,1'-biphenyl]-4-yl]methyl]-4(3H)-quinazolinone monosodium salt]
Response change (systolic BP increase to AII) [1, 3]: 40 mmHg
Response change (systolic BP increase to AII) ([1]; 1 mg/kg iv, AII .05 ug/kg, 45 min): 25 mmHg
Response change (systolic BP increase to AII) ([1]; 1 mg/kg iv, AII .05 ug/kg, 90 min): 45 mmHg
Response change (systolic BP increase to AII) [1, 4]: 55 mmHg
Response change (systolic BP increase to AII) ([1]; 1 mg/kg iv, AII .1 ug/kg, 45 min): 40 mmHg
Response change (systolic BP increase to AII) ([1]; 1 mg/kg iv, AII .1 ug/kg, 90 min): 65 mmHg
Response change (systolic BP increase to AII) ([1]; 2 mg/kg iv, AII .025 ug/kg, 30 min): 0 mmHg
Response change (systolic BP increase to AII) [1, 5]: 0 mmHg
Response change (systolic BP increase to AII) [1, 6]: 0 mmHg
Response change (systolic BP increase to AII) ([1]; 2 mg/kg iv, AII .05 ug/kg, 30 min): 0 mmHg
Response change (systolic BP increase to AII) [1, 7]: 0 mmHg
Response change (systolic BP increase to AII) [1, 8]: 25 mmHg
Response change (systolic BP increase to AII) ([1]; 2 mg/kg iv, AII .05 ug/kg, 180 min): 40 mmHg
Response change (systolic BP increase to AII) ([1]; 2 mg/kg iv, AII .1 ug/kg, 30 min): 0 mmHg
Response change (systolic BP increase to AII) [1, 9]: 0 mmHg
Response change (systolic BP increase to AII) [1, 10]: 50 mmHg
Response change (systolic BP increase to AII) ([1]; 2 mg/kg iv, AII .1 ug/kg, 180 min): 45 mmHg
inhibition in vivo at 1 mg/kg ([1]; 0.5 h, 1 mg/kg iv, AII .05 ug/kg, 30 min): 20%
inhibition in vivo at 1 mg/kg ([1]; 0.75 h, 1 mg/kg iv, AII .05 ug/kg, 45 min): 50%
inhibition in vivo at 2 mg/kg ([1]; 2.5 h, 2 mg/kg iv, AII .05 ug/kg, 150 min): 30%
inhibition in vivo at 1 mg/kg [1, 11]: 8%
inhibition in vivo at 2 mg/kg ([1]; iv, 0.5 h, 2 mg/kg iv, AII .025 ug/kg, 30 min): 100%
inhibition in vivo at 2 mg/kg ([1]; iv, 0.5 h, 2 mg/kg iv, AII .05 ug/kg, 30 min): 100%
inhibition in vivo at 2 mg/kg ([1]; iv, 0.5 h, 2 mg/kg iv, AII .1 ug/kg, 30 min): 100%
inhibition in vivo at 1 mg/kg ([1]; iv, 0.75 h, 1 mg/kg iv, AII .1 ug/kg, 45 min): 33%
inhibition in vivo at 1 mg/kg ([1]; iv, 1.5 h, 1 mg/kg iv, AII .05 ug/kg, 90 min): 10%
inhibition in vivo at 1 mg/kg ([1]; iv, 1.5 h, 1 mg/kg iv, AII .1 ug/kg, 90 min): 8%
inhibition in vivo at 2 mg/kg [1, 12]: 100%
inhibition in vivo at 2 mg/kg [1, 13]: 100%
inhibition in vivo at 2 mg/kg [1, 14]: 100%
inhibition in vivo at 2 mg/kg [1, 15]: 50%
inhibition in vivo at 2 mg/kg [1, 16]: 17%
inhibition in vivo at 2 mg/kg [1, 17]: 100%
inhibition in vivo at 2 mg/kg [1, 18]: 100%
inhibition in vivo at 2 mg/kg ([1]; iv, 3 h, 2 mg/kg iv, AII .05 ug/kg, 180 min): 20%
inhibition in vivo at 2 mg/kg ([1]; iv, 3 h, 2 mg/kg iv, AII .1 ug/kg, 180 min): 25%

From patent US5405849A, “Angiotensin II receptor blocking 2,3,6 substituted quinazolinones” (American Cyanamid Company, priority 1993, dated 1995)
